These results are taken from ChEMBL document CHEMBL1142492 (J Med Chem, 2008).

Structures are written as SMILES. pIC50: −log10 of the molar value.

One may read the pIC50 as −log10 of the IC50, conventionally taken in molar units. As usually defined, the Vd is the apparent volume that relates the amount in the body to the concentration in plasma or blood. Lower therefore signals confinement near the circulation. In general, half-life refers to how long it takes for the measured level to halve. Lower therefore signals fast loss. A word on the clearance: it is a measure of how efficiently the substance is removed, as volume per time. Low values mean a low capacity for elimination, high ones a high capacity for elimination. As a reminder, the inhibition is the change of the read-out against control, counted positive when it falls. The low end stands for a weak effect, the high end for a strong effect. As a reminder, the AUC is concentration integrated over time. Higher therefore signals more exposure. As usually defined, the Cmax is the highest concentration seen after dosing.

The target of data set [1] is Rho-associated protein kinase 2 (Homo sapiens, UniProt O75116). Kind of data set: Inhibition of ROCK2.
The nature of data set [2]: Volume of distribution in Sprague-Dawley rat at 1 mg/kg, iv. Conditions: in vivo.
The nature of data set [3]: Half life in Sprague-Dawley rat at 1 mg/kg, iv. The settings on record: in vivo.
The nature of data set [4]: Clearance in Sprague-Dawley rat at 1 mg/kg, iv. Conditions: in vivo.
In the next data set the target is CYP3A4 (Homo sapiens, UniProt P08684). Nature of the data set: Inhibition of human CYP3A4 at 10 uM. The data set is classed as ADME.
The target of another data set is T1, CYP1A2 (Homo sapiens, UniProt P05177).
T1 sequence (P05177 whole entry): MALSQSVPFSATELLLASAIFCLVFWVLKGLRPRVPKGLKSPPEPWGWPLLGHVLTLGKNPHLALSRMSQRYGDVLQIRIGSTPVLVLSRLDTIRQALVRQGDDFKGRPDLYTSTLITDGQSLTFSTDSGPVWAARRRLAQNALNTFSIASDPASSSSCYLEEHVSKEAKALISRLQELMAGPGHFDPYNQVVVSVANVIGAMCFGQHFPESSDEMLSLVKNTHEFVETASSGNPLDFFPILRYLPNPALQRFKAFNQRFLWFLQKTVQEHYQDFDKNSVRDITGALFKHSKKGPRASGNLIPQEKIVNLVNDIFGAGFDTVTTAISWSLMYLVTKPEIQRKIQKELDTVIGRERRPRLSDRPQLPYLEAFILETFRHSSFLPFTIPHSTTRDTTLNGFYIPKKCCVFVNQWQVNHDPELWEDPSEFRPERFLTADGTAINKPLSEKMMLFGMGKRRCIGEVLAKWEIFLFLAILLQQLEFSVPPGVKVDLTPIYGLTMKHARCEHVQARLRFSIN
Nature of the data set: Inhibition of human CYP1A2 at 10 uM. The data set is classed as ADME.

Another data set concerns the target CYP2D6 (Homo sapiens, UniProt P10635). Kind of data set: Inhibition of human CYP2D6 at 10 uM. The data set is classed as ADME.
Another data set deals with CYP2C9 (Homo sapiens, UniProt P11712). Kind of data set: Inhibition of human CYP2C9 at 10 uM. The data set is classed as ADME.
Data set [5] can be described thus: in vivo. The settings on record: Sprague-Dawley, rat, plasma, iv, 1 mg/kg.
Data set [6] addresses RAC-alpha serine/threonine-protein kinase (Homo sapiens, UniProt P31749). Kind of data set: Inhibition of AKT1 after 55 mins.
Data set [7] can be described thus: in vivo. The settings on record: Sprague-Dawley, rat, po, 2 mg/kg.
Data set [8] in a line: Inhibition of myosin light chain bisphosphorylation in rat A7r5 cells after 1 hr.

Chain of Rho-associated protein kinase 2 (O75116 whole entry): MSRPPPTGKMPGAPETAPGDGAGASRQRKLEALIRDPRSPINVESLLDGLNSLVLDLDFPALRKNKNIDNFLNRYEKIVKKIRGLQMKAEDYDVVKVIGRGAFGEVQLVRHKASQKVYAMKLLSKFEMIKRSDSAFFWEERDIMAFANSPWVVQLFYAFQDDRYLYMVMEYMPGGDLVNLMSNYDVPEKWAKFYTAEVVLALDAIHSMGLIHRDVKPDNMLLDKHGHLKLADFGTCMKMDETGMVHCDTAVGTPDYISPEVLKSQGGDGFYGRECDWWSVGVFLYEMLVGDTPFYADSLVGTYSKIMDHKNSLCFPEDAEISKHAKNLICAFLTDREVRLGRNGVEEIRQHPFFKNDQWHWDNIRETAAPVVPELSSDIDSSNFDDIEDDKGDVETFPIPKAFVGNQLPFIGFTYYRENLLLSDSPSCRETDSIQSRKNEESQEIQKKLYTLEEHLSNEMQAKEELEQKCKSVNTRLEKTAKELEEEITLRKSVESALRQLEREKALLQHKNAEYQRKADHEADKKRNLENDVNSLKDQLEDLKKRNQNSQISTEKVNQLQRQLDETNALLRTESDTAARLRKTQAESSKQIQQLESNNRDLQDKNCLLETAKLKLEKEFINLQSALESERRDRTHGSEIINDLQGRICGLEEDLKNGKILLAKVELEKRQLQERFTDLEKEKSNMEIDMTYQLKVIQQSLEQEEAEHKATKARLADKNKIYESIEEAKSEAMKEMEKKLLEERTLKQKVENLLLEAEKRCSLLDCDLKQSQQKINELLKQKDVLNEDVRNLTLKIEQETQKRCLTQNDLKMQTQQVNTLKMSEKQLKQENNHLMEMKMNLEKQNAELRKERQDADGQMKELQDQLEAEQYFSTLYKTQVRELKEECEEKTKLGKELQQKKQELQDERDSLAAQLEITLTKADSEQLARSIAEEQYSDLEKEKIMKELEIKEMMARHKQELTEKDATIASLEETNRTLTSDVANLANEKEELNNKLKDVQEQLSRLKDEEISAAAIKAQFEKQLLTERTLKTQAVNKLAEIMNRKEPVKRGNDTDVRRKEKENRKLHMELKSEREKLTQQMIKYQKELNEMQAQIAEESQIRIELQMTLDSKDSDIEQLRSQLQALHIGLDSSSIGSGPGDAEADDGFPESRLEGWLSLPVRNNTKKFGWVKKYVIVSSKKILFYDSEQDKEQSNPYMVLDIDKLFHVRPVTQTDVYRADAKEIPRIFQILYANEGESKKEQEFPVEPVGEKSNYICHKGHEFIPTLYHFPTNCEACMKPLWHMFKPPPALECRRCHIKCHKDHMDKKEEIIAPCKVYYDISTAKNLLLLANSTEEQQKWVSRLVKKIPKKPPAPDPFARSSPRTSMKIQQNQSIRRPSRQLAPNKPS
Chain of CYP3A4 (P08684 whole entry): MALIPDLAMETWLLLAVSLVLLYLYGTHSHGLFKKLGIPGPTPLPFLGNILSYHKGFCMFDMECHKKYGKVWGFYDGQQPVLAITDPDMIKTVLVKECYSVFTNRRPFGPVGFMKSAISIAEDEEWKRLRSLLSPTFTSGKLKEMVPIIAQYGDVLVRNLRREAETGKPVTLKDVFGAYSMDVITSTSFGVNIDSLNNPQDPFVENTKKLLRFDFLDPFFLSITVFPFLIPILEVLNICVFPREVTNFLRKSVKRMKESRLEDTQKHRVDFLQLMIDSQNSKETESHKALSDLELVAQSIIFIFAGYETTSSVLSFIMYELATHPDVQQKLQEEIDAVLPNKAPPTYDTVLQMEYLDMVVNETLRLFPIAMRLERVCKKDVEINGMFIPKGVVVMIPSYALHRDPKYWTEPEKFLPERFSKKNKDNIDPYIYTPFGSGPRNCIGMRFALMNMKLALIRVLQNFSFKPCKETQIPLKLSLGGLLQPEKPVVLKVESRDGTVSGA
Chain of CYP2C9 (P11712 whole entry): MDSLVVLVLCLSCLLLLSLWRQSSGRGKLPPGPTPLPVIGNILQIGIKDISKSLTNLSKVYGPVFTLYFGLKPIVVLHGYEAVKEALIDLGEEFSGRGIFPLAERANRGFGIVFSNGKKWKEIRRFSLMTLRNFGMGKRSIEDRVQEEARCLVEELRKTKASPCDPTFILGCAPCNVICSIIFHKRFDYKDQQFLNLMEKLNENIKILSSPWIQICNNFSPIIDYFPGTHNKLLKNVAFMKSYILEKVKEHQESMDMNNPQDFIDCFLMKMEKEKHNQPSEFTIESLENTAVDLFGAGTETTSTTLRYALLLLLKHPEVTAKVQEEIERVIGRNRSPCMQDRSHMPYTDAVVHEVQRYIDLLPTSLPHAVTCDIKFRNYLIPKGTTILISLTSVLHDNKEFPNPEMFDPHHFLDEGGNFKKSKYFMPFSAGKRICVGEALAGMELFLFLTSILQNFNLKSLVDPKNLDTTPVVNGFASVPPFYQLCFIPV
Chain of CYP2D6 (P10635 whole entry): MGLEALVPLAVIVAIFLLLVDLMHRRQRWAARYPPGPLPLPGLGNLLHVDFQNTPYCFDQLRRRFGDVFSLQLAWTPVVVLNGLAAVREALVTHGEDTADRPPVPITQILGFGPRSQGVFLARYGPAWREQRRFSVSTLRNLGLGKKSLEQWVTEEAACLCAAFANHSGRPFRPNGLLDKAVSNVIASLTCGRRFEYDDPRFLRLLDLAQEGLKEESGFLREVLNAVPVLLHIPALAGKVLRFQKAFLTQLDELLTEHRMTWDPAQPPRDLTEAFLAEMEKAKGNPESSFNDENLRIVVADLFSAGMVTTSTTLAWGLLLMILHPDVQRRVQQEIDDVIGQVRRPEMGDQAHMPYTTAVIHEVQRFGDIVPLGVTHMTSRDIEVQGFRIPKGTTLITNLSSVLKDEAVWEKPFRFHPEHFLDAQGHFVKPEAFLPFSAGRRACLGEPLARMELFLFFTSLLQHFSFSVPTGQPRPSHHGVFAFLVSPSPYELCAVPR
Chain of RAC-alpha serine/threonine-protein kinase (P31749 whole entry): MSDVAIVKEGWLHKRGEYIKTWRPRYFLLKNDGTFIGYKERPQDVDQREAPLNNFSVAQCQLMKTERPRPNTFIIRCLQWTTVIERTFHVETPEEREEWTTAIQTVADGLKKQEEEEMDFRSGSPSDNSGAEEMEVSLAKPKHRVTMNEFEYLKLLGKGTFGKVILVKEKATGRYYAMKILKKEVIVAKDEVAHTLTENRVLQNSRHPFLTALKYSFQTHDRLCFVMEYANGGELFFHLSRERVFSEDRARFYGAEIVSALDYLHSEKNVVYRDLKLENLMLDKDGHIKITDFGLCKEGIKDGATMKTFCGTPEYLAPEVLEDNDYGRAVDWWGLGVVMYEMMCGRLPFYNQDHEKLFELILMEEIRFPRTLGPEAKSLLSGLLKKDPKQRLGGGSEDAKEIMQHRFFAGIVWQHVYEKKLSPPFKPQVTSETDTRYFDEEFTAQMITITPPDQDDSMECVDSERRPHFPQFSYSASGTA

In [1], `CC(=O)Nc1ccc(-c2cn[nH]c2)cc1OCCN(C)C` showed a negative logarithm of the IC50 (pIC50) of 6.12.

Consider `CN(C)CCOc1cc(-c2cn[nH]c2)ccc1N`, for which the negative logarithm of the IC50 (pIC50) in data set [1] is 6.04.

Turning to `O=C(Nc1ccc(-c2ccncc2)cc1)C1COc2ccccc2O1` (stereo unspecified), the volume of distribution (Vd) in data set [2] was determined as 5.3 L/kg. In addition, the half-life in data set [3] is 0.5 h. This molecule also showed a clearance in [4] of 161 mL/min/kg. The inhibition at 10 µM against CYP3A4 came out at 51%; against CYP1A2, 23%; against CYP2D6, 33%; against CYP2C9, 64%. In addition, in the data set “in vivo [5]”, the exposure (AUC) was determined as 0.3 µM·h.

`COc1cc(-c2cn[nH]c2)ccc1NC(=O)C1COc2ccccc2O1` (stereo unspecified) came in with a Vd in data set [2] of 1 L/kg. Also, in data set [3], the half-life is 2.6 h. Also, in [4], the clearance was found to be 11 mL/min/kg. Besides, the inhibition at 10 µM on CYP3A4 was 36%; against CYP1A2, 92%; against CYP2D6 it was 79%; on CYP2C9, 93%. The values for the negative-log IC50 (pIC50) in [6] and in data set [1] were 5.05 and 8.48, respectively. For the same molecule, in the data set “in vivo [5]”, the area under the curve (AUC) is 4.3 µM·h. Besides, in “in vivo [7]”, the Cmax came out at 120 nM.

`O=C(Nc1nc(-c2ccncc2)cs1)C1COc2ccccc2O1` (stereo unspecified) yielded a distribution volume (Vd) in [2] of 3.7 L/kg. The half-life in [3] is 0.4 h. For the same molecule, in data set [4], the clearance stood at 181 mL/min/kg. Also, the inhibition at 10 µM at CYP3A4 came to 80%; at CYP1A2, 90%; against CYP2D6, 94%; against CYP2C9, 96%. The pIC50 in data set [6] is below 4.70; in data set [8], 6.86; in data set [1] it was 8.14. This molecule also had an exposure (AUC) in “in vivo [5]” of 0.3 µM·h.

The molecule `O=C(Nc1ccc(-c2c[nH]cn2)cc1)C1COc2ccccc2O1` (stereo unspecified) displayed a Vd in data set [2] of 1.9 L/kg. This molecule also had a half-life in [3] of 2.2 h. For the same molecule, in [4], the clearance came out at 18 mL/min/kg. For the same molecule, the inhibition at 10 µM on CYP3A4 stood at 1%; against CYP1A2 it was 20%; on CYP2D6 it was 40%; on CYP2C9, 87%. The molecule further came in with an area under the curve (AUC) in “in vivo [5]” of 2.8 µM·h. In “in vivo [7]”, the highest concentration (Cmax) is 20 nM.
